# Assay results from article PMC6754133 (PLoS ONE, 2019).
# Where two headings read alike, the source gives them in different places.
# How the values were obtained:
# Hh/SMO pathway = assay: Gli-Luciferase functional assay, NIH 3T3 Gli-RE cells stimulated with ShhN; assay type: cell-based; settings: for Inhibition of ShhN-induced Hh signaling (in words): NIH 3T3 Gli-RE cells, ShhN stimulated; for Span of concentration response curve: data as percent of the maximum luminescence in the absence of antagonists, Fig 4
# Procedure: After 24 hours, when the cells reached confluency, the culture medium was replaced with 80 μL per well of assay medium [Optimem ± 10 mM HEPES ± 1 mM Sodium Pyruvate + 1× MEM NEAA]. […] Then the cells were stimulated by addition of either ShhN-conditioned media or control media (DMEM±10%BCS) at a final concentration of 10%. Following incubation of the plate for at least 28 hours at 37°C, the cells were simultaneously lysed and supplemented with a luciferase substrate by addition of equal volume of Steady-Glo reagent (Promega, E2520) directly to the assay media. Plates were mixed by pipetting, centrifuged to eliminate foam, incubated for 10 minutes, and analyzed using Perkin Elmer Viktor X luminescence plate reader. The results were analyzed using a non-linear regression (Prism 6, GraphPad Software, La Jolla, CA). Data were normalized to the maximal response observed for ShhN-stimulated cells in the same experiment. A sigmoidal-dose response curve was used as a model for data analysis and IC50 value calculation.
# mSMO = molecular target: T1, mSMO (Mus musculus, UniProt P56726); assay: BODIPY-Cyclopamine competition binding assay, flow cytometry, HEK293T cells transiently transfected with mSMO; settings: BODIPY-Cyclopamine 5 nM
# T1 construct: host or cells: HEK293T
# Procedure: Prior to transfection, cell culture media was replaced with DMEM + 10%FBS for mSMO transfection and with DMEM + 10%BCS for ShhN transfection. The transfected dish was incubated for approximately 24 hours at 37°C. For the production of ShhN conditioned medium, the culture medium from ShhN-transfected HEK293T cells was collected, aliquoted in single use 1.5 mL Eppendorf tubes and either used fresh or stored at -20°C.
# HEK293T cells transiently transfected with mSMO were lifted with trypsin (0.25%) and replated at 6×10^4 cells in 80 μL DMEM + 10%FBS per well in a 96 well tissue-culture treated plate (Falcon, 353219). The plate was incubated at 37°C for 24 hours. Serial dilutions of test compounds (10x final concentrations) were prepared in culture media. 10 μL of diluted compounds or control media were added to the plate after which the plate was incubated at 37°C for 10 min. […] Following at least 1.5 hours incubation at 37°C in 5% CO2, cells were lifted by vigorous pipetting, transferred to conical bottom 96-well plates, and centrifuged at 400 × g for 5 min at 4°C. Supernatant was discarded, cells were re-suspended in 300 μL of PBS + 0.5% BSA (freshly prepared), and the plate was analyzed with Guava benchtop flow cytometer. The results were interpreted with FlowJo software (version v10.1). Dose response curves were constructed in Prism 6 (GraphPad Software, La Jolla, CA).
# SMO [1] = molecular target: T2, SMO (Mus musculus, UniProt P56726); settings: literature value, cited from earlier work; for IC50: read-out: Gli-RE-luciferase assay IC50
# T2 construct: host or cells: NIH 3T3 Gli-RE
# MB-PDX cells [2] = assay: Neurosphere formation assay; assay type: cell-based, human; settings: MB-PDX, 10 μM, at least 7 days, 1–2 cells per well
# Procedure: (§2) The final concentration of test compounds in the wells was 10 μM. Cells were incubated at 37 °C for at least seven days. After incubation percent of wells positive with neural stem cell-derived sphere colonies were calculated for each test condition and compared.
# MB-PDX and DAOY cells [3] = assay: alamarBlue cell viability assay, adherent versus NS conditions; assay type: cell-based, human
# Procedure: The results were analyzed using a non-linear regression (Prism 6, GraphPad Software, La Jolla, CA).
# DAOY cells [4] = assay: cells; settings: Homo sapiens, 72 h, read-out: Cell viability assay IC50
# DAOY cells [5] = assay: Neurosphere formation assay; assay type: cell-based, human; settings: DAOY, 10 μM, at least 7 days, 1–2 cells per well
# Procedure: as §2
# SMO [6] = molecular target: T2, SMO; assay: Competitive functional inhibition assay against SAG, Gli-Luciferase, NIH 3T3 Gli-RE cells; assay type: cell-based; settings: read-out: EC50 of SAG (printed as IC50 in Fig 5c); SAG alone
# Procedure: After 24 hours, when the cells reached confluency, the culture medium was replaced with 80 μL per well of assay medium [Optimem ± 10 mM HEPES ± 1 mM Sodium Pyruvate + 1× MEM NEAA]. […] Following incubation of the plate for at least 28 hours at 37°C, the cells were simultaneously lysed and supplemented with a luciferase substrate by addition of equal volume of Steady-Glo reagent (Promega, E2520) directly to the assay media. Plates were mixed by pipetting, centrifuged to eliminate foam, incubated for 10 minutes, and analyzed using Perkin Elmer Viktor X luminescence plate reader. The results were analyzed using a non-linear regression (Prism 6, GraphPad Software, La Jolla, CA). Data were normalized to the maximal response observed for ShhN-stimulated cells in the same experiment. A sigmoidal-dose response curve was used as a model for data analysis and IC50 value calculation.
# MB-PDX cells [7] = assay: cells; settings: Homo sapiens, 72 h, read-out: Cell viability assay IC50
# [8] = system: firefly luciferase under control of cAMP response element (CRE); assay: CRE-luciferase counter assay in HEK293s cells; assay type: cell-based; settings: different concentrations
# Procedure: (a) The drugs were tested at different concentrations in HEK293s cells stably transfected with firefly luciferase under control of cAMP response element (CRE) (pGL4.29[luc2P/CRE/Hygro], Promega). […] Raw, non-normalized luminescence values are presented, to facilitate the assessment of the extent of inhibition. Shown is a single representative experiment out of the multiple experiments performed on different days. (Mean ± SD)
# [9] = system: nuclear Gli-1 in DAOY cells; assay: Western blot quantitation of nuclear Gli-1; assay type: cell-based, human; settings: NS conditions, 24-hour treatment, 5 μM (Fig 6f, S4 Fig)
# Procedure: (§1) Nuclear fractions were prepared from cell pellets according to the method of Schreiber et. al.[81] with minor modifications. […] After 24 hours, cells were lifted from the wells by pipetting, transferred to 1.5 mL Eppendorf tubes, centrifuged at 10,000 x g for 1 minutes at 4°C, and washed once in PBS. Following supernatant removal by vacuum, cells were lysed using a plasma membrane lysis buffer [10 mM HEPES; pH 7.5, 10 mM KCl, 0.1 mM EDTA, 1 mM dithiothreitol (DTT), 0.5% Nonidet P‐40 and 0.5 mM PMSF along with 1× protease inhibitor cocktail (Sigma)] and allowed to swell on ice for 15‐20 min with intermittent mixing. Next, tubes were vortexed to disrupt cell membranes and then centrifuged at 12,000 × g at 4°C for 10 min. […] The pelleted nuclei were washed with the plasma membrane lysis buffer and re-suspended in the nuclear extraction buffer [20 mM HEPES (pH 7.5), 400 mM NaCl, 1 mM EDTA, 1 mM DTT, 1 mM PMSF with 1× protease inhibitor cocktail] and incubated on ice for 30 min. The tubes were centrifuged at 12,000 ×g for 25 min at 4°C and the supernatant (now containing the soluble fraction of the cell nuclei) was collected. Total protein concentrations were determined using the Bio-Rad Protein Assay (Bio-Rad, Hercules, CA). Nuclear extracts containing the total of 40 μg protein were separated on a 10% Tris-SDS PAGE gel (Bio-Rad Mini-PROTEAN® TGX). Gels were transferred on nitrocellulose membranes using Bio-Rad TransBlot system, after which the membranes were blocked in the blocking buffer [5% nonfat dry milk in 1× Tris Buffer Saline + 0.1% Tween 20 (TBST)] for 2 hours at room temperature. Following blocking, the membranes were washed four times with TBST (5 minutes gentle rocking per wash) and incubated overnight with primary antibody Rabbit anti-Gli-1 (Cell signaling, #C68H3); 1:250 dilution in TBST-Milk at 4°C with gentle rocking. Membranes were washed three times with TBST for 5 min each.
# [10] = system: nuclear Gli-1 in MB-PDX cells; assay: Western blot quantitation of nuclear Gli-1; assay type: cell-based, human; settings: NS conditions, 24-hour treatment, 5 μM (Fig 6f, S4 Fig)
# Procedure: as §1
# [11] = system: Platelet-derived growth factor receptor alpha (PGFRA_HUMAN); set-up: method as in earlier work; settings: S2/S3 Table; ref [1] Davis MI et al., Nat Biotechnol. 2011; cited from earlier work
# MB-PDX and DAOY cells [12] = assay: Cell viability with and without Vismodegib (0.5 uM), alamar blue; assay type: cell-based, human; settings: with 0.5 μM Vismodegib, 72 hours
# Procedure: S6 Figure: Cell viability in Medulloblastoma Cells (MB-PDX and DAOY) [n=3]. […] The cell viability was measured after 72 hours of treatment using alamar blue. (Mean ± SD)
# [13] = system: Mast/stem cell growth factor receptor Kit (KIT_HUMAN); set-up: method as in earlier work; settings: S2/S3 Table; ref [1] Davis MI et al., Nat Biotechnol. 2011; cited from earlier work
# [14] = system: Platelet-derived growth factor receptor beta (PGFRB_HUMAN); set-up: method as in earlier work; settings: S2/S3 Table; ref [1] Davis MI et al., Nat Biotechnol. 2011; cited from earlier work
# [15] = Mus musculus, NIH3T3, NIH3T3 Gli-RE cells, ShhN-conditioned media, n = 3, read-out: Hh/SMO pathway inhibition IC50
# [16] = NIH3T3 Gli-RE cells, ShhN-conditioned media, n = 3, read-out: Hh/SMO pathway inhibition IC50
# T2 sequence (P56726 33-793): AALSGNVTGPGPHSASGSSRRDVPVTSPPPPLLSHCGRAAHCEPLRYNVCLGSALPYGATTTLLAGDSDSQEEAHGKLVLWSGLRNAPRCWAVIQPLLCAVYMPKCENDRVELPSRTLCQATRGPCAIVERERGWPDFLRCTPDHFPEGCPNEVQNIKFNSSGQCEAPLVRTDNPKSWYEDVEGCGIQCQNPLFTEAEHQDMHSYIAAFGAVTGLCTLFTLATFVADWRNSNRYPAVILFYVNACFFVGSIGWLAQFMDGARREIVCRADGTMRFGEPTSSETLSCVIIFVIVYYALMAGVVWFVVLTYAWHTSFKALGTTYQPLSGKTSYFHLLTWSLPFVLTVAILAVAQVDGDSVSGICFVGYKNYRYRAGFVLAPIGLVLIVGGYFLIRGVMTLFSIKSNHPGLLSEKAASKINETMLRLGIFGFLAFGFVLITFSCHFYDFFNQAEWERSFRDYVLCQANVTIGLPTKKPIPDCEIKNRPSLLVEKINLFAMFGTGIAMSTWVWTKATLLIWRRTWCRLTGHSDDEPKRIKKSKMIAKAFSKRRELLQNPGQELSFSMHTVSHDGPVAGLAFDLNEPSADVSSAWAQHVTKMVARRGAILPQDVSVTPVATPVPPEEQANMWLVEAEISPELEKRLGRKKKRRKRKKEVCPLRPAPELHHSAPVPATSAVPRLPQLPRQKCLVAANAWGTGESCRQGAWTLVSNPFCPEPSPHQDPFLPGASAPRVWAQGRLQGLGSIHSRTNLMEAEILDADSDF
# T1 sequence (P56726 33-793): as above
compound,measurement,setting,value
COC(=O)Nc1nc2ccc(C(=O)c3ccccc3)cc2[nH]1 [Mebendazole],IC50,Hh/SMO pathway; [15],327 nM
same,Inhibition of ShhN-induced Hh signaling (in words),Hh/SMO pathway,inhibited ShhN-induced Hh signaling in a dose-dependent manner
same,IC50,Hh/SMO pathway; [16],328 nM
same,Span of concentration response curve,Hh/SMO pathway,108.1
same,Displacement of BODIPY-Cyclopamine from SMO (in words),mSMO,no effect
"C[C@@]12CN(C(=O)Nc3ccnn3-c3ccccc3)CCN1C(=O)N([C@H]1C[C@@H]1c1ccccc1)C2=O [MK_5710, (8aS)-8a-methyl-1,3-dioxo-2-[(1S,2R)-2-phenylcyclopropyl]-N-(1-phenyl-1H-pyrazol-5-yl)hexahydroimid azo[1,5-a]pyrazine-7(1H)-carboxamide]",IC50,SMO [1],17 nM
"CN(C(=O)c1ccc(F)cc1C(F)(F)F)C1CCN(c2nnc(-c3ccnn3C)c3ccccc23)CC1 [Taladegib (LY2940680), Taladegib]",IC50,SMO [1],2.6 nM
CS(=O)(=O)Nc1ccc([N+](=O)[O-])cc1Oc1ccccc1 [Nimesulide],Inhibition of ShhN-induced Hh signaling (in words),Hh/SMO pathway,inactive
same,Span of concentration response curve,Hh/SMO pathway,-3.874
same,Displacement of BODIPY-Cyclopamine from SMO (in words),mSMO,no effect
CC1=C2C[C@H]3[C@@H](CC=C4C[C@@H](O)CC[C@@]43C)[C@@H]2CC[C@]12O[C@@H]1C[C@H](C)CN[C@H]1[C@H]2C [Cyclopamine],IC50,"Hh/SMO pathway; Mus musculus, NIH3T3, read-out: Hh/SMO pathway inhibition IC50, NIH3T3 Gli-RE cells, ShhN-conditioned media, n = 3",189 nM
same,Span of concentration response curve,Hh/SMO pathway,105.7
same,IC50,"Hh/SMO pathway; read-out: Hh/SMO pathway inhibition IC50, NIH3T3 Gli-RE cells, ShhN-conditioned media, n = 3",189 nM
"Cc1c(C(=O)Nc2ccc(N3C[C@@H](C)O[C@@H](C)C3)nc2)cccc1-c1ccc(OC(F)(F)F)cc1 [Sonidegib (NVP-LDE225), Sonidegib]",IC50,SMO [1],2.5 nM
CCC(C)n1ncn(-c2ccc(N3CCN(c4ccc(OCC5COC(Cn6cncn6)(c6ccc(Cl)cc6Cl)O5)cc4)CC3)cc2)c1=O (centres unmarked) [Itraconazole],IC50,SMO [1],800 nM
CC1=C2C[C@H]3[C@@H](CC[C@@H]4C[C@H](NS(C)(=O)=O)CC[C@@]43C)[C@@H]2CC[C@@]2(C1)O[C@@H]1C[C@H](C)CN[C@H]1[C@H]2C [Saridegib],IC50,SMO [1],9 nM
O=C1CCC(N2C(=O)c3ccccc3C2=O)C(=O)N1 (centres unmarked) [Thalidomide],Inhibition of ShhN-induced Hh signaling (in words),Hh/SMO pathway,inactive
same,Span of concentration response curve,Hh/SMO pathway,-12.85
same,Displacement of BODIPY-Cyclopamine from SMO (in words),mSMO,no effect
Cc1nn(-c2ccccc2)c(C)c1/C=N/N1CCN(Cc2ccccc2)CC1 [SANT-1],IC50,SMO [1],20 nM
C#Cc1cccc(Nc2ncnc3cc(OCCOC)c(OCCOC)cc23)c1 [Erlotinib],"Inhibition of NS formation, wells",MB-PDX cells [2],ineffective
same,Effect on cell viability (in words),MB-PDX and DAOY cells [3],did not affect cell viability under any condition
same,IC50,DAOY cells [4],11000 nM
same,"Inhibition of NS formation, wells",DAOY cells [5],ineffective
"Cc1csc(CN[C@@H]2Cc3ccc(NC(=O)c4cccc(C)c4-c4ccc(C(F)(F)F)cc4)cc3C2)n1 [23b_ NV, 3-methyl-N-[(2R)-2-[(4-methyl-1,3-thiazol-2-yl)methylamino]-2,3-dihydro-1H-inden-5-yl]-2-[4-(trifluoromethyl)phenyl]benzamide]",IC50,SMO [1],17 nM
CNC1CCC(N(Cc2cccc(-c3ccncc3)c2)C(=O)c2sc3ccccc3c2Cl)CC1 (centres unmarked) [SAG],EC50,SMO [6],79 nM
same,EC50,"SMO [1]; read-out: Gli-RE-luciferase assay EC50 (for SAG the value is EC50 not IC50), agonist",3 nM
CS(=O)(=O)c1ccc(C(=O)Nc2ccc(Cl)c(-c3ccccn3)c2)c(Cl)c1 [Vismodegib],IC50,MB-PDX cells [7],52000 nM
same,IC50,Hh/SMO pathway; [15],4.08 nM
same,IC50,Hh/SMO pathway; [16],4 nM
same,"Inhibition of NS formation, wells",MB-PDX cells [2],ineffective
same,Effect on CRE-driven luciferase activity (independent of SMO),[8],lack of dose-dependent effect
same,"Inhibition of NS formation, wells",DAOY cells [5],ineffective
same,"Nuclear Gli-1, mean, % of untreated samples",[9],75%
same,"Nuclear Gli-1, mean, % of untreated samples",[10],67%
Cc1ccc(NC(=O)c2ccc(CN3CCN(C)CC3)cc2)cc1Nc1nccc(-c2cccnc2)n1 [Imatinib],Inhibition of ShhN-induced Hh signaling (in words),Hh/SMO pathway,inhibited ShhN-induced Hh signaling in a dose-dependent manner
same,"Inhibition of NS formation, wells",MB-PDX cells [2],less potent
same,Kd/Ki Value,[11],31 nM
same,Change of efficacy in cell viability assay in the presence of Vismodegib,MB-PDX and DAOY cells [12],improvement in efficacy
same,Kd/Ki Value,[13],13 nM
same,Effect on CRE-driven luciferase activity (independent of SMO),[8],lack of dose-dependent effect
same,Kd/Ki Value,[14],14 nM
same,"Inhibition of NS formation, wells",DAOY cells [5],less potent
CNCc1ccc(C)c(NC(=O)c2ccc(Nc3nc(-c4ccccc4)c4ccccc4n3)cc2)c1 [BMS_833923],IC50,SMO [1],6 to 35 nM
